In US12668599B2, “Heterobifunctional compounds and methods of treating disease” (Halda Therapeutics OpCo, Inc., priority 2023, dated 2026):
Like-named read-outs stand apart in the source and are kept apart here.

What was measured:
[1] = test system: T47D cells; assay: Cellular growth inhibition assay for T47D cells (CellTiter-Glo 2.0, 72 hours); type: cell-based, human
Method: Exemplary compounds were tested for ability to inhibit the proliferation of T47D cells. T47D cells are a commercially available human breast cancer cell line.
T47D cells were purchased from American Type Cell Culture (ATCC Cat #HTB-133) and then seeded on poly-D-lysine coated, black clear-bottom 384-well plates at 3000/well in 25 μL Dulbecco's Modified Eagle Medium (DMEM) supplemented with 10% w/w Fetal bovine serum (FBS), 0.2 units/mL recombinant human insulin (Gibco Cat #12585014), and 1% w/w Pen-Strep. Pen-Strep is a commercially available mixture of penicillin G and streptomycin, which is used in mammalian cell culture media to prevent bacterial contamination. Dulbecco's Modified Eagle Medium (DMEM) supplemented with 10% w/w fetal bovine serum (FBS), 0.2 units/mL recombinant human insulin, and 1% w/w Pen-Strep is herein referred to as Treatment Medium. Following seeding of cells in the plates, the plates were spun at 300×g for 30 seconds, then equilibrated to room temperature for 30 minutes, and then deposited in a humidified tissue culture incubator maintained at 37° C. with 5% CO2.
At 24 hours after seeding of the cells, dilutions of test compound were prepared in DMSO and dissolved in Treatment Medium, to achieve a final DMSO concentration of 0.5% w/w, thereby providing the Test Compound Solution. A 25 μL aliquot of the Test Compound Solution was added to cells in the well plates. An equal volume of a solution containing DMSO and Treatment Medium was used as a negative control. Following treatment of cells with Test Compound Solution or said equal volume of a solution containing DMSO and Treatment Medium, the plates were spun at 300×g for 30 seconds, and then left in an incubator for 72 hours.
At the end of the treatment duration, cell viability was quantified with CellTiter-Glo 2.0 reagent (Promega Cat #G9243). For this purpose, plates were equilibrated to room temperature for 30 minutes, and then 25 μL of CellTiter-Glo 2.0 reagent was added to cells in the plate wells. Plates were then agitated on a shaker for two minutes at 500 rpm and subsequently incubated at room temperature for 10 minutes. Following incubation, the plates were spun at 3000×g for 30 seconds, then sealed with an optical adhesive cover, and luminescence readings were measured with an En Vision Plate Reader (Perkin Elmer).
Data was normalized using zero luminescence for baseline. A four-parameter non-linear regression curve fit was applied to dose-response data in GraphPad Prism data analysis software to determine the half-maximal growth inhibitory concentration (GI50) for each test compound.

[2] = test system: VCaP cells; assay: Cellular growth inhibition assay for VCaP cells (CellTiter-Glo 2.0, 72 hours); type: cell-based, human; settings: for Ratio of GI50's: GI50 of the top compound in the pair divided by GI50 of the lower compound; for GI50: CellTiter-Glo 2.0
[3] = test system: T-Rex 293 cell line SC3 cells having increased expression of androgen receptor protein due to exposure to doxycycline; assay: Cellular growth inhibition, T-Rex 293 SC3 cells with doxycycline-induced androgen receptor (CellTiter-Glo 2.0, 72 hours); type: cell-based; settings: for Ratio of GI50's: GI50 of the top compound in the pair divided by GI50 of the lower compound, T-Rex 293 SC3 cells with doxycycline-induced androgen receptor; for GI50: T-Rex 293 SC3 cells with 10 ng/ml doxycycline (increased androgen receptor expression), 72 hours, CellTiter-Glo 2.0
[4] = test system: T-Rex 293 cell line SC3 cells lacking increased expression of androgen receptor protein; assay: Cellular growth inhibition, T-Rex 293 SC3 cells without doxycycline (CellTiter-Glo 2.0, 72 hours); type: cell-based; settings: T-Rex 293 SC3 cells not exposed to doxycycline (no increased androgen receptor expression)

Row | SMILES | GI50 [1] [µM] | GI50 ([1]; Homo sapiens, T47D, 72 h) [µM] | Ratio of GI50's [2] | GI50 ([2]; Homo sapiens, VCaP, 72 h) [µM] | GI50 ([2]; 72 hours) [µM] | Ratio of GI50's [3] | GI50 [3] [µM] | GI50 ([4]; 72 h) [µM] | GI50 [4] [µM]
1 | COc1cc(O[C@H]2CC[C@H](NC(=O)c3ncc(N4CCC5(CCC(c6ccc(C7=N[C@@H](C)c8nnc(C)n8-c8sc(C)c(C)c87)cc6)CC5)C4)cn3)CC2)ccc1C#N (stereo partly drawn) [Compound I-102] | – | < 0.5 | – | < 0.5 | – | – | < 0.5 | < 0.5 | –
2 | COc1cc(O[C@H]2CC[C@H](NC(=O)c3ccc(N4CCC5(CN(c6ccc(C7=N[C@@H](C)c8nnc(C)n8-c8sc(C)c(C)c87)cc6)CC5(F)F)C4)nn3)CC2)ccc1C#N (stereo partly drawn) [Compound I-104] | 1.5 to 3 | – | – | – | 0.5 to 1.5 | – | < 0.5 | – | 0.5 to 1.5
3 | COc1cc(O[C@H]2CC[C@H](NC(=O)c3ccc(N4CCC5(CCN(c6ccc(C7=NC(Cc8ncco8)c8nnc(C)n8-c8sc(C)c(C)c87)cc6F)CC5)C4)nn3)CC2)ccc1C#N (single isomer, unassigned) [Compound I-134] | – | – | – | – | > 3 | – | < 0.5 | – | > 3
4 | COc1cc(O[C@H]2CC[C@H](NC(=O)c3ccc(N4CCC5(CCN(c6ccc(C7=N[C@@H](C)c8nnc(C)n8-c8sc(C)c(C)c87)cc6OC)CC5)C4)nn3)CC2)ccc1C#N [Compound I-90] | – | – | – | < 0.5 | – | – | < 0.5 | < 0.5 | –
5 | COc1cc(O[C@H]2CC[C@H](NC(=O)c3ccc(N4CCC5(CCC(c6ccc(C7=N[C@@H](C)c8nnc(C)n8-c8sc(C)c(C)c87)cc6)C5)C4)nn3)CC2)ccc1C#N (stereo partly drawn) [Compound I-96] | – | – | – | – | < 0.5 | – | < 0.5 | – | < 0.5
6 | COc1cc(O[C@H]2CC[C@H](NC(=O)c3ccc(N4CCC5(CCC(Oc6ccc(C7=N[C@@H](C)c8nnc(C)n8-c8sc(C)c(C)c87)cc6)C5)C4)nn3)CC2)ccc1C#N (stereo partly drawn) [Compound I-51] | – | – | – | – | < 0.5 | – | < 0.5 | – | < 0.5
7 | COc1cc(O[C@H]2CC[C@H](NC(=O)c3ccc(N4CCC5(CCN(c6ccc(C7=N[C@@H](C)c8nnc(C)n8-c8sc(C)c(C)c87)cc6)CC5)C4)cc3)CC2)ccc1C#N [Compound I-55] | – | – | – | < 0.5 | – | – | < 0.5 | < 0.5 | –
8 | COc1cc(O[C@H]2CC[C@H](NC(=O)c3ccc(N4CCC5(CCCN(c6ccc(C7=N[C@@H](C)c8nnc(C)n8-c8sc(C)c(C)c87)cc6)C5)C4)nn3)CC2)ccc1C#N (stereo partly drawn) [Compound I-99] | – | – | – | – | < 0.5 | – | < 0.5 | – | < 0.5
9 | COc1cc(O[C@H]2CC[C@H](NC(=O)c3ccc(N4CCC5(CCN(c6ccc(C7=N[C@@H](C)c8nnc(C)n8-c8sc(C)c(C)c87)c(OC)c6)CC5)C4)nn3)CC2)ccc1C#N [Compound I-75] | – | – | – | < 0.5 | – | – | < 0.5 | < 0.5 | –
10 | COc1cc(O[C@H]2CC[C@H](NC(=O)c3ccc(N4C[C@H]5CN(c6ccc(C7=N[C@@H](Cc8ncco8)c8nnc(C)n8-c8sc(C)c(C)c87)cc6)C[C@H]5C4)nn3)CC2)ccc1C#N [Compound I-106, 6-[(3aR,6aS)-2-[4-[(9S)-4,5,13-trimethyl-9-(oxazol-2-ylmethyl)-3-thia-1,8,11,12-tetrazatricyclo[8.3.0.0^2,6]trideca-2 (6),4,7,10,12-pentaen-7-yl]phenyl]-1,3,3a,4,6,6a-hexahydropyrrolo[3,4-c]pyrrol-5-yl]-N-[4-(4-cyano-3-methoxy-phenoxy)cyclohexyl]pyridazine-3-carboxamide] | – | – | – | < 0.5 | – | – | < 0.5 | < 0.5 | –
11 | Cc1sc2c(c1C)C(c1ccc(OC3CC4(CCN(c5ccc(C(=O)NC6CCC(Oc7ccc(C#N)c(OC(F)(F)F)c7)CC6)nn5)CC4)C3)cc1)=N[C@@H](Cc1ncco1)c1nnc(C)n1-2 (stereo partly drawn) [Compound I-16, N-[4-[4-cyano-3-(trifluoromethoxy)phenoxy]cyclohexyl]-6-[2-[4-[(9S)-4,5,13-trimethyl-9-(oxazol-2-ylmethyl)-3-thia-1,8,11,12-tetrazatricyclo[8.3.0.0^2,6]trideca-2 (6),4,7,10,12-pentaen-7-yl]phenoxy]-7-azaspiro[3.5]nonan-7-yl]pyridazine-3-carboxamide] | – | – | – | < 0.5 | – | – | < 0.5 | < 0.5 | –

More lines, main results first:

Row | GI50 [1] [µM] | GI50 ([1]; Homo sapiens, T47D, 72 h) [µM] | Ratio of GI50's [2] | GI50 ([2]; Homo sapiens, VCaP, 72 h) [µM] | GI50 ([2]; 72 hours) [µM] | SMILES | Ratio of GI50's [3] | GI50 [3] [µM] | GI50 ([4]; 72 h) [µM] | GI50 [4] [µM]
12 | 0.5 to 1.5 | – | – | – | – | COc1cc(O[C@H]2C(C)(C)[C@H](NC(=O)c3cnc(N4CCC5(CCC(c6ccc(C7=N[C@@H](C)c8nnc(C)n8-c8sc(C)c(C)c87)cc6)CC5)C4)nc3)C2(C)C)ccc1C#N [II-8] | – | – | – | –
13 | – | < 0.5 | 1 | < 0.5 | – | COc1cc(O[C@H]2C(C)(C)[C@H](NC(=O)c3cnc(N4CCC5(CC4)CC(Cc4ccc(C6=N[C@@H](Cc7ncco7)c7nnc(C)n7-c7sc(C)c(C)c76)cc4)C5)nc3)C2(C)C)ccc1C#N [II-10, N-[3-(4-cyano-3-methoxy-phenoxy)-2,2,4,4-tetramethyl-cyclobutyl]-2-[2-[[4-[(9S)-4,5,13-trimethyl-9-(oxazol-2-ylmethyl)-3-thia-1,8,11,12-tetrazatricyclo[8.3.0.0^2,6]trideca-2 (6),4,7,10,12-pentaen-7-yl]phenyl]methyl]-7-azaspiro[3.5]nonan-7-yl]pyrimidine-5-carboxamide] | 1 | < 0.5 | 0.5 to 1.5 | –
14 | – | < 0.5 | – | – | – | Cc1sc2c(c1C)C(c1ccc(OC3CC4(CCN(c5ncc(C(=O)N[C@H]6C(C)(C)[C@H](Oc7ccc(C#N)c(OC(F)(F)F)c7)C6(C)C)cn5)CC4)C3)cc1)=N[C@@H](Cc1ncco1)c1nnc(C)n1-2 [II-2] | – | – | – | –
15 | – | < 0.5 | – | 1.5 to 3 | – | COc1cc(O[C@H]2C(C)(C)[C@H](NC(=O)c3cnc(N4CCC5(CCC(c6ccc(C7=N[C@@H](C)c8nnc(C)n8-c8sc(C)c(C)c87)cc6)CC5)C4)nc3)C2(C)C)ccc1C#N [II-7] | – | < 0.5 | < 0.5 | –
16 | – | < 0.5 | – | – | – | COc1cc(O[C@H]2C(C)(C)[C@H](NC(=O)c3ccc(N4CCC5(CC4)CC(Cc4ccc(C6=N[C@@H](C)c7nnc(C)n7-c7sc(C)c(C)c76)cc4)C5)nc3)C2(C)C)ccc1C#N [II-6] | – | – | – | –
17 | – | < 0.5 | – | – | – | COc1cc(O[C@H]2C(C)(C)[C@H](NC(=O)c3cnc(N4CCC(CC5CN(c6ccc(C7=N[C@@H](C)c8nnc(C)n8-c8sc(C)c(C)c87)cc6)C5)CC4)nc3)C2(C)C)ccc1C#N [II-3] | – | – | – | –
18 | – | < 0.5 | – | < 0.5 | – | COc1cc(O[C@H]2C(C)(C)[C@H](NC(=O)c3cnc(N4CCC5(CCC(c6ccc(C7=N[C@@H](Cc8ncco8)c8nnc(C)n8-c8sc(C)c(C)c87)cc6)CC5)C4)nc3)C2(C)C)ccc1C#N [II-11, N-[(1r,3r)-3-(4-cyano-3-methoxy-phenoxy)-2,2,4,4-tetramethyl-cyclobutyl]-2-[8-[4-[(9S)-4,5,13-trimethyl-9-(oxazol-2-ylmethyl)-3-thia-1,8,11,12-tetrazatricyclo[8.3.0.0^2,6]trideca-2 (6),4,7,10,12-pentaen-7-yl]phenyl]-2-azaspiro[4.5]decan-2-yl]pyrimidine-5-carboxamide] | – | < 0.5 | < 0.5 | –
19 | – | < 0.5 | – | > 3 | – | Cc1sc2c(c1C)C(c1ccc(CC3CC4(CCN(c5ncc(C(=O)N[C@H]6C(C)(C)[C@H](Oc7ccc(C#N)c(OC(F)(F)F)c7)C6(C)C)cn5)CC4)C3)cc1)=N[C@@H](Cc1ncco1)c1nnc(C)n1-2 [II-1, N-[3-[4-cyano-3-(trifluoromethoxy)phenoxy]-2,2,4,4-tetramethyl-cyclobutyl]-2-[2-[[4-[(9S)-4,5,13-trimethyl-9-(oxazol-2-ylmethyl)-3-thia-1,8,11,12-tetrazatricyclo[8.3.0.0^2,6]trideca-2 (6),4,7,10,12-pentaen-7-yl]phenyl]methyl]-7-azaspiro[3.5]nonan-7-yl]pyrimidine-5-carboxamide] | – | < 0.5 | < 0.5 | –
20 | < 0.5 | – | 1 | – | < 0.5 | COc1cc(O[C@H]2C(C)(C)[C@H](NC(=O)c3cnc(N4CCC5(CCC(c6ccc(C7=N[C@@H](Cc8ncco8)c8nnc(C)n8-c8sc(C)c(C)c87)cc6)CC5)C4)nc3)C2(C)C)ccc1C#N [II-12] | 1 | < 0.5 | – | < 0.5
